Measurements taken from US20240132493A1, “IMIDAZOPYRIDINE DERIVATIVES AS STING AGONISTS” (Fulgent Genetics, Inc., priority 2021, published 2024).

Experiments:
STING [1] = target: T1, STING (Homo sapiens, UniProt Q86WV6, G230A/H232R/R293Q/R71H); test: qPCR analysis of mRNA levels of cytokine gene expression (IFNB, ISG15, CXCL10) in THP-1 cells; format: cell-based; settings: 10 μM compound, 6 h, vs DMSO
T1 construct: Human monocyte cell THP-1 were purchased from ATCC (Catalog No. TIB-202); host or cells: THP-1 human monocyte cells
T1 sequence (Q86WV6 whole entry R71H/G230A/H232R/R293Q): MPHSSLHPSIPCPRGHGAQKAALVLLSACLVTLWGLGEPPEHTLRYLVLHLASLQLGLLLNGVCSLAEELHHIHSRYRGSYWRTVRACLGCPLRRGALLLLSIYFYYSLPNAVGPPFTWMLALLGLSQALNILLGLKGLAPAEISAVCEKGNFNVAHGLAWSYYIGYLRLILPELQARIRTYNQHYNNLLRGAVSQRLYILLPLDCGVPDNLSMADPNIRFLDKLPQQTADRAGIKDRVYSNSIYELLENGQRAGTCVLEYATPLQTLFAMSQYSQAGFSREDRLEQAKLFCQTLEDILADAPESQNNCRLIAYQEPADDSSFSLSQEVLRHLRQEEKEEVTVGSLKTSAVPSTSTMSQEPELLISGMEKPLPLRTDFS
Experimental: (§1) qPCR analysis of mRNA levels of cytokine gene expression in THP-1 cell Human monocyte cell THP-1 were purchased from ATCC (Catalog No. TIB-202). The complete growth medium was made with ATCC-formulated RPMI-1640 Medium (Catalog No. 30-2001) and supplemented with 2-mercaptoethanol to a final concentration of 0.05 mM, and fetal bovine serum (FBS) to a final concentration of 10%.
To evaluate the agonistic effects of chemicals on STING, the gene expression of IFNB, ISG15 and CXCL10 in human monocyte THP-1 cells was measured by real time qPCR. After the treatment of 10 μM Compounds for 6 hrs, cells were respectively lysed by TRIzol reagents (from Invitrogen). Total RNA was extracted according to the manufacturer's instruction. mRNA concentration was measured via 3rd generation NanoDrop machine. 1 μg of mRNA was used for the reverse transcription reaction with random primer, dNTP mix, RNase inhibitor and M-MuLV Reverse Transcriptase. SYBR green supermix and hot start DNA polymerase were used in qPCR with TBP gene as an internal control. Gene-specific primers were purchase from Integrated DNA Technologies.

STING [2] = target: T1, STING; test: Western blot analysis of activated STING and its downstream protein phosphorylation in THP-1 cells; format: cell-based; settings: 10 μM compound, 3 h, vs DMSO
Experimental: The Western blot analysis of activated STING and its downstream protein phosphorylation in human monocyte THP-1 cells
as §1, with “Human” for “qPCR analysis of mRNA levels of cytokine gene expression in THP-1 cell Human”
After the THP-1 cells were treated with the 10 μM invented compounds for 3 hours, the cells were lysed by RIPA buffer, followed by washing with PBS. The total protein concentration was measured by BCA protein assay. The 10 μg protein sample was loaded after mixing with SDS-PAGE protein loading buffer, separated on SDS-PAGE and transferred to a PVDF membrane using the semi-dry transfer apparatus. After blocking with 5% BSA for 1 hr, the membrane was incubated with 1st antibodies overnight at 4° C., followed by incubation with HRP-conjugated 2nd antibodies (Catalog No. WBULS0100 from Millipore) for another 1 hr at room temperature. Lastly, the immunocomplexes were detected via the Bio-Rad ChemiDoc Touch Imaging System. Antibodies for western blotting were purchased from Cell Signaling Technology, catalog numbers 19781 (p-STING Ser366), 13647 (STING), 5483 (p-TBK1 Ser 172), 3504 (TBK1), 4947 (p-IRF3 Ser396), 4302 (IRF3) and 7074 (HRP-linked anti-rabbit IgG).

[3] = system: CT-26 mouse colon adenocarcinoma; test: Antitumor efficacy in s.c. CT-26 mouse colon adenocarcinoma model; format: in vivo, BALB/c mice
Experimental: Evaluation of Antitumor Efficacy in CT-26 Mouse Model
Six- to eight-week-old male BALB/c mice of 18-20 g were purchased from Taconic Biosciences (La Jolla, CA). Mouse colon carcinoma CT-26 (from ATCC) cells were maintained in RPMI-1640 medium supplemented with 10% fetal bovine serum (FBS), 100 U/ml penicillin and 100 μg/ml streptomycin, and incubated at 37° C. and 5% CO2. The cells growing in an exponential growth phase were harvested and counted for tumor inoculation. Each mouse was inoculated subcutaneously at the left and the right flank with 5×10^4 CT-26 tumor cells in 0.1 ml of serum-free medium for tumor development.
Mice were randomized into study groups with 8 mice/group when average tumor volume was ˜70 mm^3. […] Tumor size and body weight were measured twice per week throughout the study. Tumor volume was calculated by applying length and width caliper measurements to the following formula: TV=0.5*L*W^2. Percent treated/control (T/C) value was calculated as 100×ΔT/ΔC (when ΔT>0) or 100×ΔT/Tsd (when ΔT<0) where ΔT and ΔC are the changes in the mean tumor volumes between the indicated day and the first day of measurement for the treatment and control groups, respectively. […] Statistical analyses of the differences in tumor volume among the groups were evaluated using a one-way ANOVA. […]

[4] = Tolerability and body weight in CT-26 mouse model; format: in vivo; settings: 3×1.5 mg/kg IP, BALB/c mice bearing CT-26
Experimental: Mice were randomized into study groups with 8 mice/group when average tumor volume was ˜70 mm^3. On day 1, 4 and 8 mice were dosed with vehicle or 1.5 mg/kg Cpd 4 (Example 4) in 5% DMSO, 45% PEG400, and […] formulation by intraperitoneal injection. Tumor size and body weight were measured twice per week throughout the study. Tumor volume was calculated by applying length and width caliper measurements to the following formula: TV=0.5*L*W^2. Percent treated/control (T/C) value was calculated as 100×ΔT/ΔC (when ΔT>0) or 100×ΔT/Tsd (when ΔT<0) where ΔT and ΔC are the changes in the mean tumor volumes between the indicated day and the first day of measurement for the treatment and control groups, respectively. Tsd is the first day mean tumor volume of the treated group. Statistical analyses of the differences in tumor volume among the groups were evaluated using a one-way ANOVA. All data were analyzed using GraphPad Prism 8 (GraphPad Software, San Diego, CA). p<0.05 was considered to be statistically significant.

Row | Compound | mRNA level of CXCL10 (STING [1]) | mRNA level of IFNB (STING [1]) | mRNA level of ISG15 (STING [1]) | p-IRF3 level (STING [2]) | p-TBK1 level (STING [2]) | phosphorylated STING (p-STING) level (STING [2]) | tumor growth rate of treated/control (T/C) ([3]; 3×1.5 mg/kg IP (day 1, 4, 8), day 12, s.c. CT-26 in BALB/c mice) [%] | antitumor efficacy (tumor volume) ([3]; 3×1.5 mg/kg IP, s.c. CT-26 in BALB/c mice) | body weight [4] | tolerability [4]
1 | CCn1nc(C)cc1C(=O)Nc1nc2cc(C(N)=O)cnc2n1C/C=C/Cn1c(NC(=O)c2cc(C)nn2CC)nc2cc(C(N)=O)cc(OCCCN3CCOCC3)c21 [Example 4, (E)-3-(4-(5-carbamoyl-2-(1-ethyl-3-methyl-1H-pyrazole-5-carboxamido)-7-(3-morpholinopropoxy)-1H-benzo[d]imidazol-1-yl)but-2-en-1-yl)-2-(l-ethyl-3-methyl-1H-pyrazole-5-carboxamido)-3H-imidazo[4,5-b]pyridine-6-carboxamide] | significantly upregulated | significantly upregulated | significantly upregulated | higher levels | higher levels | higher levels | 19 | highly potent | no bodyweight loss | well-tolerated
2 | CCn1nc(C)cc1C(=O)Nc1nc2cc(C(N)=O)cnc2n1C/C=C/Cn1c(NC(=O)c2cc(C)nn2CC)nc2cc(C(N)=O)cc(OCCN3CCOCC3)c21 [Example 10, (E)-3-(4-(5-carbamoyl-2-(1-ethyl-3-methyl-1H-pyrazole-5-carboxamido)-7-(2-morpholinoethoxy)-1H-benzo[d]imidazol-1-yl)but-2-en-1-yl)-2-(1-ethyl-3-methyl-1H-pyrazole-5-carboxamido)-3H-imidazo[4,5-b]pyridine-6-carboxamide] | significantly upregulated | significantly upregulated | significantly upregulated | higher levels | higher levels | higher levels | – | – | – | –
3 | CCn1nc(C)cc1C(=O)Nc1nc2cc(C(N)=O)cnc2n1C/C=C/Cn1c(NC(=O)c2cc(C)nn2CC)nc2cc(C(N)=O)cc(OCCCN3CCNCC3)c21 [Example 8, (E)-3-(4-(5-carbamoyl-2-(1-ethyl-3-methyl-1H-pyrazole-5-carboxamido)-7-(3-(piperazin-1-yl)propoxy)-1H-benzo[d]imidazol-1-yl)but-2-en-1-yl)-2-(1-ethyl-3-methyl-1H-pyrazole-5-carboxamido)-3H-imidazo[4,5-b]pyridine-6-carboxamide] | significantly upregulated | significantly upregulated | significantly upregulated | higher levels | higher levels | higher levels | – | – | – | –
4 | CCn1nc(C)cc1C(=O)/N=c1\n(C)c2cc(C(N)=O)cnc2n1C/C=C/Cn1/c(=N/C(=O)c2cc(C)nn2CC)n(C)c2cc(C(N)=O)cc(OCCCN3CCOCC3)c21 [Example 6, (E)-3-((E)-4-((E)-5-carbamoyl-2-((1-ethyl-3-methyl-1H-pyrazole-5-carbonyl)imino)-3-methyl-7-(3-morpholinopropoxy)-2,3-dihydro-1H-benzo[d]imidazol-1-yl)but-2-en-1-yl)-2-((1-ethyl-3-methyl-1H-pyrazole-5-carbonyl)imino)-1-methyl-2,3-dihydro-1H-imidazo[4,5-b]pyridine-6-carboxamide] | significantly upregulated | significantly upregulated | significantly upregulated | – | – | – | – | – | – | –
